Assays:
HEK293T cells [1] = test: Cell enumeration by dual-parameter flow cytometry; format: cell-based; settings: 60 hr after transfection
Description: (C) Cell enumeration by flow cytometry. HEK293T cells expressing wild-type TIF-IA or the S649 mutants were harvested 60 hours after transfection, stained with FITC-conjugated anti-FLAG M2 antibodies and analyzed by dual-parameter flow cytometry in a FACScan™ flow cytometer in the presence of CaliBRITE™ calibration beads. 60,000 events were recorded from each sample. The number of cells expressing FLAG-TIF-IA was calculated from the ratio between FITC-positive cells and counted beads.
HEK293T cells were harvested 60 hr after transfection with pcDNA-FLAG-TIF-IA, fixed with 2% paraformaldehyde and permeabilized with 0.1% Triton X-100 in PBS. […] Cell were analyzed with a FACSCan™ flow cytometer in the presence of CaliBRITE™ beads (Becton Dickinson, San Jose, USA). The number of cells expressing FLAG-TIF-IA was calculated from the ratio between FITC-positive cells and counted beads.
Given the functional significance of ERK/RSK-directed TIF-IA phosphorylation on Pol I transcription, mutations that enhance or abrogate TIF-IA activity may have a positive or negative effect on cell growth. […] The expression of TIF-IA was estimated on Western blots and the cellular growth rate was measured by calcein-AM staining. […] Thus, cellular calcein fluorescence correlates with the amount of viable cells. […]

HEK293T cells [2] = test: Relative DNA content of sorted cells by FACS analysis; format: cell-based
Description: HEK293T cells were harvested 60 hr after transfection with pcDNA-FLAG-TIF-IA, fixed with 2% paraformaldehyde and permeabilized with 0.1% Triton X-100 in PBS. Transfected cells were labeled by incubation for 1 hr with 2 μg/ml FITC-conjugated anti-M2 antibodies (Sigma) and subsequently stained with […] propidium iodide (Sigma). Cell were analyzed with a FACSCan™ flow cytometer in the presence of CaliBRITE™ beads (Becton Dickinson, San Jose, USA). The number of cells expressing FLAG-TIF-IA was calculated from the ratio between FITC-positive cells and counted beads.
Given the functional significance of ERK/RSK-directed TIF-IA phosphorylation on Pol I transcription, mutations that enhance or abrogate TIF-IA activity may have a positive or negative effect on cell growth. To test this, HEK293T cells were transfected with cDNAs encoding wild-type or mutant TIF-IA which harbor single or double point mutations at S649 and S633. The expression of TIF-IA was estimated on Western blots and the cellular growth rate was measured by calcein-AM staining. […] Thus, cellular calcein fluorescence correlates with the amount of viable cells. […] Cells expressing FLAG-tagged wild-type or mutant TIF-IA were stained with FITC-conjugated anti-FLAG antibodies, identified by FACS and cell numbers were calculated by measuring the ratio of stained cells versus an internal standard. […]

Pol I transcription [3] = test: In vitro transcription: TIF-IA mutants restoring rDNA transcription of nuclear extract from density-arrested FM3A cells; format: biochemical, murine
Description: (A) Transcriptional activity of TIF-IA mutants in vitro. FLAG-tagged wild-type TIF-IA and the indicated single or double point mutants were overexpressed in HEK293T cells, immunopurified, and 20 and 40 ng were assayed for their capability to restore rDNA transcriptional activity of nuclear extract from density-arrested FM3A cells. The amount and purity of TIF-IA were estimated on silver-stained SDS-polyacrylamide gels and Western blots (data not shown).
(A) Transcriptional activity of TIF-IAS199A and TIF-IAS199D in vitro. FLAG-tagged wild-type TIF-IA and the indicated mutants were immunopurified from HEK293T cells, and 30 and 60 ng were assayed for their capability to restore transcriptional activity of nuclear extract from density-arrested FM3A cells. The amount and purity of TIF-IA were estimated on silver-stained SDS-polyacrylamide gels (data not shown).
(B) Transcriptional activity of TIF-IAS44A in vitro. FLAG-tagged wild-type TIF-IA and the indicated mutant were assayed for their transcriptional activity in vitro.
(§1) Nuclear extracts were prepared from exponentially growing (8×10^5 cells/ml), density-arrested or PD98059-treated (CN Bioscience, Bad Soden, Germany) 40 μM, 0.5 hr) or rapamycin-treated FM3A cells (ATCC, Manassas, USA). 25 μl assays contained 50 ng of template DNA (pMr600/EcoRI), 30 μg nuclear extract proteins and 12 mM Hepes-KOH, [pH8.0], 0.1 mM EDTA, 5 mM MgCl2, 80 mM KCl, 10 mM creatine phosphate, 12% (v/v) glycerol, 0.66 mM each of ATP, GTP and CTP, 0.01 mM UTP and 0.5 μCi [α-^32P]UTP (5000 Ci/mmol). After incubation for 60 min at 30° C., RNA was extracted and analyzed on non-denaturing 5% polyacrylamide gels
TIF-IA was immunopurified from untransfected NIH3T3 cells or from HEK293T cells overexpressing FLAG-tagged TIF-IA. 4×10^6 cells were lysed in 0.8 ml IP buffer (20 mM Tris-HCl [pH 7.4], 200 mM NaCl, 2 mM EDTA, 2 mM EGTA, 1% Triton X-100, 0.5 mM PMSF, 1 μg/ml aprotinin, 5 μg/ml leupeptin and 1 μg/ml pepstatin A), centrifuged at 10,000 g for 30 min, and the supernatants were incubated for 4 hr at 4° C. with either 10 μg anti-TIF-IA antibodies bound to 20 μl protein G-agarose or with anti-FLAG (M2) agarose (Sigma-Aldrich Corp., Missouri, USA). The immunocomplexes were successively washed with buffer AM (20 mM Tris-HCl [pH 8.0], 5 mM MgCl2, 0.1 mM EDTA, 20% glycerol) containing 400 and 100 mM KCl, respectively. The amount and purity of TIF-IA was estimated on silver-stained polyacrylamide gels and similar amounts of bead-bound TIF-IA were used in in vitro transcription assays. GST fusion proteins were expressed in E. coli BL21(DE3) and purified on Glutathione-Sepharose 4B according to the manufacturer's instructions.
To assess the functional relevance of S633 and S649 phosphorylation on transcriptional activity, the respective S→A and S→D single or double point mutants were purified from transfected cells and assayed for their capability to rescue transcription of extracts from density-arrested cells. […] Thus, phosphorylation of TIF-IA at S649 and S633 is required for transcriptional activity.
Phosphorylation of peptide a should inhibit TIF-IA activity, while phosphorylation of peptide b, e.g. S44, should augment TIF-IA activity.

HEK293T cells [4] = test: Quantitative fluorimetric viability assay with calcein-AM; format: cell-based; settings: 24, 36, 48 and 60 hr after transfection; 2 μM calcein-AM
Description: (B) Quantitative fluorimetric viability assay with calcein-AM. HEK293T cells were transfected with TIF-IA or the indicated point mutants. […] Viable cells were measured 24, 36, 48 and 60 hr after transfection by incubation with […] calcein-AM. The gradual increase in fluorescence intensity was recorded with a fluorescence multi-well plate reader for 20 min with an excitation wavelength of 485 nm and an emission wavelength of 530 nm. The proliferation rate of mock-transfected cells and cells overexpressing TIF-IA is shown at the left. Plots show the accumulation of calcein fluorescence (arbitrary units) against time. Growth rates calculated from linear regression curves are shown at the right. Values are presented as the mean±SD from three independent experiments performed in duplicates.
Conversion of calcein-AM (calcein acetoxymethyl ester, (CN Bioscience GmbH, Bad Soden, Germany) to calcein was used to measure cell proliferation. 12 hr after transfection, HEK293T cells were seeded to 96-well micro-plates at 1×10^4 cells/well. After 24, 36, 48 and 60 hr, cells were washed with PBS, incubated with 2 μM calcein-AM, and the gradual increase in fluorescence intensity within the cells was recorded by a fluorescence multi-well plate reader (CytoFluor Series 4000/TC, PerSeptive Biosystems, (Applied Biosystems, Forster City, USA) for 20 min in 1 min intervals. Excitation wavelength used for measurements of fluorescence was 485 nm with a bandwidth of 20 nm; emission wavelength was 530 nm with a bandwidth of 25 nm. Under the experimental conditions used, there is a direct correlation between the accumulation ratio of intracellular calcein fluorescence and the number of viable cells. The data from three independent experiments were analyzed by Sigmaplot and expressed as the mean±standard deviation. For statistical analysis, student's t test was used. Differences with a P<0.01 were considered statistically significant.
Given the functional significance of ERK/RSK-directed TIF-IA phosphorylation on Pol I transcription, mutations that enhance or abrogate TIF-IA activity may have a positive or negative effect on cell growth. To test this, HEK293T cells were transfected with cDNAs encoding wild-type or mutant TIF-IA which harbor single or double point mutations at S649 and S633. The expression of TIF-IA was estimated on Western blots and the cellular growth rate was measured by calcein-AM staining. Calcein-AM is a non-fluorescent, hydrophobic compound that is rapidly hydrolyzed by intracellular esterases releasing hydrophilic fluorescent calcein. Thus, cellular calcein fluorescence correlates with the amount of viable cells. […] Cells expressing FLAG-tagged wild-type or mutant TIF-IA were stained with FITC-conjugated anti-FLAG antibodies, identified by FACS and cell numbers were calculated by measuring the ratio of stained cells versus an internal standard. […] Conversely, the number of cells expressing TIF-IAS649A was 33% lower than the control. […] Taken together, the results reveal a striking correlation between phosphorylation of TIF-IA at serine 649, cellular rRNA synthetic activity and cell cycle progression.

Pol I transcription [5] = test: In vitro transcription: TIF-IA mutants added to nuclear extract from exponentially growing FM3A cells; format: biochemical, murine; settings: 20 and 40 ng added to 15 ug nuclear extract
Description: 20 and 40 ng of the indicated TIF-IA mutants were added to 15 ug nuclear extract from exponentially growing FM3A cells and rDNA transcription was assayed.
as §1
Given that phosphorylation of TIF-IA at serine 649 is essential for transcription, excess of TIF-IAS649A should impair Pol I transcription. To test this, we examined the effect of exogenous wild-type and mutant TIF-IA on transcriptional activity of extracts from exponentially growing cells.

HEK293T cells [6] = test: Trypan blue staining; format: cell-based; settings: data not shown
Pol I = test: Co-immunoprecipitation of Pol I with TIF-IA mutants from HEK293T cells; format: binding, human
Description: (§2) (B) A mutant that mimics phosphorylation of TIF-IA at S199 fails to interact with Pol I and TIF-IB. FLAG-tagged wild-type TIF-IA or the indicated point mutants were overexpressed in HEK293T cells and immunoprecipitated from cell lysates with anti-FLAG antibodies (M2 agarose). Co-precipitated Pol I and TIF-IB/SL1 were visualized on Western blots with anti-RPA116 and anti-TAFI110 antibodies.
(§3) Immunoprecipitations were carried out from human cells overexpressing FLAG-tagged TIF-IA. Cells were lysed in IP buffer, cleared by centrifugation at 10,000×g for 30 min, and the supernatants were incubated for 4 hr at 4° C. with anti-FLAG (M2) agarose (Sigma). To analyze the interaction of TIF-IA with TIF-IB/SL1, the immunoprecipitates were washed with IP buffer and TIF-IB/SL1 was visualized on immunoblots with α-TAFI110 antibodies. To monitor the interaction of TIF-IA with Pol I, the immunoprecipitates were washed with IP buffer containing 600 mM NaCl and Pol I was analyzed on Western blots using antibodies against the second largest subunit of Pol I (RPA116) or PAF67 (Seither et al., J. Biol. Chem. 382 (2001), 1163-1170).
(§4) Given the importance of mTOR-mediated alterations in the phosphorylation pattern on TIF-IA activity, one could predict that either phosphorylation of S199, dephosphorylation of S44 or both regulate the interaction of TIF-IA with the Pol I transcription apparatus. It was therefore examined whether the S→A or S→D point mutant(s) were capable of interacting with Pol I and/or TIF-IB/SL1. For this, TIF-IA was precipitated from cells overexpressing either FLAG-tagged wild-type TIF-IA or the respective S199 and S44 mutant(s), and co-precipitated Pol I and TIF-IB/SL1 were visualized on Western blots.

Pol I transcription [7] = test: Pol I reporter plasmid pMrl930-BH co-transfection in NIH3T3 cells, Northern blot; format: cell-based; settings: 0.25, 0.5 or 1 μg expression vector
Description: (C) Phosphorylation by RSK is necessary and sufficient for enhancing TIF-IA activity in vivo. NIH3T3 cells were co-transfected with 3 μg pMrl930-BH and lor 2.5 μg of pMT2-HA-CA-RSK2 (lanes 2, 3). Transcripts from the reporter plasmid were monitored on Northern blots. An ethidium bromide stain of cellular 18S and 28S rRNA is shown below.
(C) Transcriptional activity of TIF-IAS44A in vivo. NIH3T3 cells were cotransfected with 2.5 μg Pol I reporter plasmid (pMrl930-BH) and 0.25, 0.5 or 1 μg of pcDNA3.1-TIF-IA (lanes 2-4), TIF-IAS44A (lanes 5-7). Transcripts from the reporter plasmid were monitored on Northern blots. The amount of cellular 18S and 28S rRNA is shown below.
NIH3T3, HEK293T and CLL39 cells were cultured in Dulbecco's modified Eagles medium (DMEM) supplemented with 10% fetal calf serum. Cells were transfected with 5 μg of DNA per 10^6 cells using the calcium phosphate DNA coprecipitation method. Total RNA was isolated after 48 h and analyzed on Northern blots as described (Voit et al., EMBO J. 18 (1999), 1891-1899). Cellular pre-rRNA levels were monitored by hybridization to antisense RNA complementary to the first 155 nucleotides of unprocessed 45S pre-RNA. Transcripts from the rDNA reporter plasmid were monitored by hybridization to a riboprobe that is complementary to pUC sequences inserted between the rDNA promoter and terminator sequences of pMrl930-BH. […]

TIF-IB/SL1 = test: Co-immunoprecipitation of TIF-IB/SL1 with TIF-IA mutants from HEK293T cells; format: binding, human
Description: as §2, §3, §4

TIF-IAS649D: TIF-IA point mutant, serine 649 replaced by aspartic acid
number of cells higher compared to cells overexpressing wild-type TIF-IA (HEK293T cells [1]): 43% | increase of G2/M-phase cells (HEK293T cells [2]): 50% | capability to rescue transcription of extracts from density-arrested cells (Pol I transcription [3]; S633/S649 mutants, 20 and 40 ng): activated Pol I transcription to a similar or even higher level compared to wild-type TIF-IA | cellular growth rate by calcein-AM staining (HEK293T cells [4]): accelerated cell growth | effect on transcriptional activity of extracts from exponentially growing cells (Pol I transcription [5]): enhanced Pol I transcription

TIF-IAS633AS649D: printed once in b155, probably a misprint of TIF-IAS633AS649A
cell viability as cause of growth inhibition (HEK293T cells [6]): not due to decreased cell viability

TIF-IAS44A: TIF-IA mutant, S44 mutated to alanine
capability to rescue transcription of extracts from density-arrested cells (Pol I transcription [3]; S199 and S44 mutants, 30 and 60 ng): abolishment of transcriptional activity of TIF-IA | interaction with Pol I (co-precipitated RPA116) (Pol I): interacted with both Pol I and TIF-IB/SL1 | transcription of the Pol I reporter (Pol I transcription [7]): inactive | interaction with TIF-IB/SL1 (co-precipitated TAFI110) (TIF-IB/SL1): interacted with both Pol I and TIF-IB/SL1

Reference: patent US20060057669A1, “Inactive transcription factor tif-ia and uses thereof” (priority 2002, published 2006)
